These compounds were tested on J774.1 (assay: Inhibition of LPS-induced NO production in mouse J774.1cells after 24 hrs). Conditions: J774.1, 24 h.
Assay type: functional, cell-based

Row | SMILES | IC50
1 | C=C[C@@]1(C)CC(=O)[C@H]2[C@](O)(C1=O)[C@H](OC(C)=O)C[C@H]1C(C)(C)[C@H](OC(=O)c3ccccc3)[C@H](O)[C@H](OC(=O)c3ccccc3)[C@@]12C [ORTHOSIPHONONE D] | 35 µM
2 | C=C[C@H]1[C@@H](OC(=O)c2ccccc2)[C@H]2[C@](O)(C(=O)[C@@]1(C)O)[C@H](OC(C)=O)C[C@H]1C(C)(C)[C@H](OC(=O)c3ccccc3)[C@H](O)[C@H](OC(C)=O)[C@@]12C [STAMINOL C] | 61.1 µM
3 | C=C[C@@]1(C)C[C@@H](O)[C@@H]2[C@@]3(C)C=C(OC(C)=O)C(=O)C(C)(C)[C@@H]3C[C@@H](OC(C)=O)[C@@]2(O)[C@H]1OC(C)=O | 119 µM
4 | CNC(=N)NCCC[C@H](N)C(=O)O [TILARGININE] | 35.7 µM
5 | C=C[C@@]1(C)CC(=O)[C@H]2[C@](O)(C1=O)[C@H](OC(C)=O)C[C@H]1C(C)(C)[C@H](O)[C@H](OC(=O)c3ccccc3)[C@H](O)[C@@]12C [ORTHOSIPHONONE C] | 81.8 µM
6 | C=C[C@H]1[C@@H](OC(=O)c2ccccc2)[C@@H]2[C@@]3(C)C=C(OC(C)=O)C(=O)C(C)(C)[C@@H]3C[C@@H](OC(C)=O)[C@@]2(O)C(=O)[C@@]1(C)O [STAMINOL D] | 92 µM

From ChEMBL document CHEMBL1151178, “Staminane- and isopimarane-type diterpenes from Orthosiphon stamineus of Taiwan and their nitric oxide inhibitory activity” (J Nat Prod, 2004)
